Several values for one entry are separate records, joined by “and”; a condition that tells them apart may be missing. Equal entries are not always repeated.

The conditions of assay [1]: comparison value, antigen not given; read-out: equilibrium dissociation constant of therapeutic antibody; cited from earlier work.
In a further assay the target is T1, human GDF-15 (Homo sapiens, UniProt Q99988).
T1 sequence (Q99988 with tags, fused parts or gaps limits assumed): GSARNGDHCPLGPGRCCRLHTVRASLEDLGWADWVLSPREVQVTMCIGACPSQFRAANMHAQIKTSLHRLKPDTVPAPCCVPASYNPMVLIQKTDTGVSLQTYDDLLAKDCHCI
The assay can be described thus: Kd determination by Surface Acoustic Wave (SAW) gold chip biosensors. The class given is binding. To be noted: murine B1-23 stabilized with 0.2% BSA, H1L5 as CHO supernatant. From the text: Determination of Kd values of anti-GDF-15 antibodies. The Kd values of different anti-GDF-15 antibodies were compared using Surface Acoustic Wave (SAW) gold chip biosensors technology (SAW Instruments GmbH, Schwertberger Str. 16, D-53177 Bonn, Germany):
The murine antibody (B1-23) as well as the chimeric B1-23 antibody were present in purified form. The H1L5 humanized B1-23 antibody was a serum-free CHO cell culture supernatant.

Assay [2] is described as follows: Study No. 140123: feed consumption of UACC-257 inoculated mice. Format: in vivo, Balb/c^nu/nu mice. The following applies: average over day 17-34 intervals, with standard deviation. The procedure: Treatment of cancer-induced weight loss with anti-GDF-15 antibodies. In the underlying animal study No. 140123, 10 Balb/c^nu/nu mice per treatment group were subcutaneously inoculated with 10×10^6 UACC-257 cells per animal in a 1:1 volume ratio with matrigel (100 μl cells+100 μl matrigel). The animals were treated on the same day with the respective antibodies, as indicated below:
In addition to evaluating the mean body weight of the mice, the feed consumption of the mice was evaluated by pairwise comparisons of the study groups (Table 1).

Consider “Rituximab: therapeutically used antibody; control antibody in SAW assay”, for which the Kd in assay [1] was ~8 nM and 8 nM; in the assay with human GDF-15, 1120 nM.

As to `CN(C)/N=N/c1[nH]cnc1C(N)=O` [dacarbazine, Dacarbazine, reference compound], the “Feed consumption per mouse and day” value in assay [2] came to 2.8 ± 0.2 g.
